In test [1] the test system is KRas G12D-mediated Phosphorylation of ERK. Description: Inhibition of KRas G12D-mediated Phosphorylation of ERK in AGS cells. Type of test: cell-based. The settings on record: Homo sapiens; AGS cells expressing G12D, 3 hours, phospho-ERK normalized to GAPDH. The gist of the method: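 AGS cells (endogenous KRas G12D) were treated with compounds for 3 h in 0.5% DMSO, then fixed, permeabilized and immunostained. The phospho-ERK (Thr202/Tyr204) signal was normalized to GAPDH in-cell by infrared detection and expressed as % of DMSO control. IC50 came from a 4-parameter fit.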

Test [2] addresses T1, KRas G12D (Homo sapiens, UniProt P01116, G12D). Kind of test: KRas G12D Surface Plasmon Resonance (SPR) Binding Assay. The settings on record: Biacore T200, biotinylated Avidin-tagged KRAS protein on SA chip, 20 C, 1:1 binding model. The gist of the method: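 Biotinylated Avi-tagged KRAS G12D was captured on a streptavidin chip; compounds were injected as 3-fold dilution series in HBS-Mg buffer, pH 7.5, with DMSO at 20 C (60 s contact, 120 s dissociation). Binding constants came from 1:1 model fits.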
(In SPR one partner is held on a chip, and binding of the other changes the refractive index at the surface.)
Target sequence in this assay (P01116 1-188 isoform P01116-2 G12D): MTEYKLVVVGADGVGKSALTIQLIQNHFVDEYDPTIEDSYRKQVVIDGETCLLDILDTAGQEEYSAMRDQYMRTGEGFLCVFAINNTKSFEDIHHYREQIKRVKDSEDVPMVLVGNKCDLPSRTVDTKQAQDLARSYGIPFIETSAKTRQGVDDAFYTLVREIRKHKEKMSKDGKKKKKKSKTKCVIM

For test [3], the target named is T1, KRas G12D. Kind of test: KRas G12D Binding Assay (TR-FRET displacement of labeled tracer). Also on record: corresponding to amino acids 1:169, produced at Array BioPharma; biotin (protein is biotinylated). To be noted: TR-FRET displacement of Cy5 labelled tracer, biotinylated GDP-loaded KRAS G12D (aa 1:169), 60 minute incubation at 22° C. The gist of the method: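 Biotinylated GDP-loaded human KRAS G12D (aa 1–169) incubated with Cy5 tracer, Eu-streptavidin and compound (2% DMSO final) in 50 mM HEPES pH 7.5, 5 mM MgCl2, 0.005% Tween-20, 1 mM DTT, 60 min at 22 °C. TR-FRET ratio converted to percent of control; IC50 at 50 POC from 4-parameter logistic fit.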
Target sequence in this assay (P01116 1-169 isoform P01116-2 G12D): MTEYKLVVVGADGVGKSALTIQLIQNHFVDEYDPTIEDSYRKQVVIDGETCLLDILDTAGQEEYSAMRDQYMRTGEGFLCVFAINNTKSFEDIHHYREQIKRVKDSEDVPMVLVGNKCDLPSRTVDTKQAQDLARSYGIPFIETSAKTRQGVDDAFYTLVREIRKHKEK
Background: TR-FRET usually uses a lanthanide donor and a delayed reading to cut background.

Drawing on patent US12686692B2, “KRas G12D inhibitors” (Mirati Therapeutics, Inc., priority 2020, dated 2026), this text covers IC50 and Kd for 18 compounds.

SMILES strings stand for the structures.

For orientation: IC50 means the concentration that inhibits the measured activity by half. Low readings indicate greater potency in that assay, high ones weaker potency in that assay. The term Kd denotes the free concentration of one partner at which half of the binding sites on the other are occupied at equilibrium, for simple one-to-one binding. The low end stands for higher affinity, the high end for lower affinity. In the case of `Fc1ccc2cccc(N3CCc4c(nc(OCC56CCCN5CCC6)nc4N4C[C@H]5CC[C@@H](C4)N5)C3)c2c1Cl` [Example 62, 4-((1R,5S)-3,8-diazabicyclo[3.2.1]octan-3-yl)-7-(8-chloro-7-fluoronaphthalen-1-yl)-2-((tetrahydro-1H-pyrrolizin-7a(5H)-yl)methoxy)-5,6,7,8-tetrahydropyrido[3,4-d]pyrimidine], the IC50 in test [1] is 1.94 µM; in test [3], 0.001 µM. Besides, in test [2], the Kd came to 0.0081 µM.

As to `CN1CCC[C@H]1COc1nc2c(c(N3C[C@H]4CC[C@@H](C3)N4)n1)CCN(c1cc(O)cc3ccccc13)C2` [Example 1, 4-(4-((1R,5S)-3,8-diazabicyclo[3.2.1]octan-3-yl)-2-(((S)-1-methylpyrrolidin-2-yl)methoxy)-5,8-dihydropyrido[3,4-d]pyrimidin-7(6H)-yl)naphthalen-2-ol], the IC50 in test [1] was found to be 2.35 µM; in test [3], 0.0489 µM. Further, binding in test [2] was put at a Kd of 0.11 µM.

For `Clc1cccc2cncc(N3CCc4c(nc(OCC56CCCN5CCC6)nc4N4C[C@H]5CC[C@@H](C4)N5)C3)c12` [Example 30, 4-((1R,5S)-3,8-diazabicyclo[3.2.1]octan-3-yl)-7-(5-chloroisoquinolin-4-yl)-2-((tetrahydro-1H-pyrrolizin-7a(5H)-yl)methoxy)-5,6,7,8-tetrahydropyrido[3,4-d]pyrimidine], the results for the 50% inhibitory concentration (IC50) in test [1] and in test [3] were 2.61 µM and 0.0168 µM, respectively. For the same compound, the Kd in test [2] was 0.0871 µM.

Regarding `CN1CCC[C@H]1COc1nc2c(c(N3C[C@H]4CC[C@@H](C3)N4)n1)CCN(c1cccc3cccc(Cl)c13)C2` [Example 2, 4-((1R,5S)-3,8-diazabicyclo[3.2.1]octan-3-yl)-7-(8-chloronaphthalen-1-yl)-2-(((S)-1-methylpyrrolidin-2-yl)methoxy)-5,6,7,8-tetrahydropyrido[3,4-d]pyrimidine], the values for the IC50 in test [1] and in test [3] were 16.1 µM and 0.267 µM, respectively. This compound also returned a Kd in test [2] of 0.163 µM.

For the compound `CN1CCC[C@H]1COc1nc2c(c(N3C[C@@H]4C[C@@H](O)[C@H](C3)N4)n1)CCN(c1cccc3cccc(Cl)c13)C2` [Example 95, (1S,5S,6R)-3-(7-(8-chloronaphthalen-1-yl)-2-(((S)-1-methylpyrrolidin-2-yl)methoxy)-5,6,7,8-tetrahydropyrido[3,4-d]pyrimidin-4-yl)-3,8-diazabicyclo[3.2.1]octan-6-ol], the IC50 was over 16.7 µM in test [1] and 0.0506 µM in test [3]. Further, the Kd in test [2] was 0.0583 µM.

For `CN1CCC[C@H]1COc1nc2c(c(N3C[C@@H]4C[C@H](O)[C@H](C3)N4)n1)CCN(c1cc(O)cc3ccccc13)C2` (single isomer, unassigned) [Example 55], the IC50 in test [1] turned out to be 4.88 µM; in test [3] it was 0.775 µM. In test [2], this compound showed a Kd of 38.7 µM.

In the case of `CN1CCC[C@H]1COc1nc2c(c(N3C[C@H]4CC[C@@H](C3)N4)n1)CCN(c1cncc3cccc(Cl)c13)C2` [Example 58, 4-((1R,5S)-3,8-diazabicyclo[3.2.1]octan-3-yl)-7-(5-chloroisoquinolin-4-yl)-2-(((S)-1-methylpyrrolidin-2-yl)methoxy)-5,6,7,8-tetrahydropyrido[3,4-d]pyrimidine], the IC50 was over 16.7 µM in test [1] and 0.283 µM in test [3]. The same compound displayed a Kd in test [2] of 0.438 µM.

Regarding `FC(F)(F)c1c(Cl)cccc1N1CCc2c(nc(OCC34CCCN3CCC4)nc2N2C[C@H]3CC[C@@H](C2)N3)C1` [Example 63, 4-((1R,5S)-3,8-diazabicyclo[3.2.1]octan-3-yl)-7-(3-chloro-2-(trifluoromethyl)phenyl)-2-((tetrahydro-1H-pyrrolizin-7a(5H)-yl)methoxy)-5,6,7,8-tetrahydropyrido[3,4-d]pyrimidine], the IC50 in test [1] came out at 6.58 µM; in test [3] it was 0.0051 µM. The compound further yielded a Kd in test [2] of 0.0123 µM.

With `CN1CCC[C@H]1COc1nc2c(c(N3C[C@H]4CC[C@@H](C3)N4)n1)CCN(c1cccc3ccc(F)c(Cl)c13)C2` [Example 65, 4-((1R,5S)-3,8-diazabicyclo[3.2.1]octan-3-yl)-7-(8-chloro-7-fluoronaphthalen-1-yl)-2-(((S)-1-methylpyrrolidin-2-yl)methoxy)-5,6,7,8-tetrahydropyrido[3,4-d]pyrimidine], the results for the concentration for half-maximal inhibition (IC50) in test [1] and in test [3] were over 16.7 µM and 0.0152 µM, respectively. Further, the affinity in test [2], expressed as Kd, was 0.0182 µM.

On to `CN1CCC[C@H]1COc1nc2c(c(N3C[C@H]4CC[C@@H](C3)N4)n1)CCN(c1cc(O)c(Br)c3ccccc13)C2` [Example 109, 4-(4-((1R,5S)-3,8-diazabicyclo[3.2.1]octan-3-yl)-2-(((S)-1-methylpyrrolidin-2-yl)methoxy)-5,8-dihydropyrido[3,4-d]pyrimidin-7(6H)-yl)-1-bromonaphthalen-2-ol], for which the IC50 in test [1] amounted to 0.663 µM; in test [3], 0.0055 µM. The same compound returned a Kd in test [2] of 0.0208 µM.

Take `CN1CCC[C@H]1COc1nc2c(c(N3C[C@H]4C[C@@H](O)[C@@H](C3)N4)n1)CCN(c1cc(O)cc3ccccc13)C2` (single isomer, unassigned) [Example 54]: the IC50 in test [1] was found to be 1.13 µM; in test [3] it was 0.0411 µM. In addition, binding in test [2] was characterised by a dissociation constant (Kd) of 501 µM.

`CO[C@@H]1C[C@@H]2CN(c3nc(OCC45CCCN4CC(F)C5)nc4c3CCN(c3cccc5cccc(Cl)c35)C4)C[C@H]1N2` (mixture of isomers) [Example 43, 7-(8-chloronaphthalen-1-yl)-2-((2-fluorotetrahydro-1H-pyrrolizin-7a(5H)-yl)methoxy)-4-((1R,5R,6R)-6-methoxy-3,8-diazabicyclo[3.2.1]octan-3-yl)-5,6,7,8-tetrahydropyrido[3,4-d]pyrimidine]: the IC50 in test [1] was over 16.7 µM; in test [3] it was 0.0901 µM. In test [2], this compound had a dissociation constant Kd of 0.0576 µM.

`FC1CN2CCCC2(COc2nc3c(c(N4CC5CC(F)C(C4)N5)n2)CCN(c2cccc4cccc(Cl)c24)C3)C1` (racemic) [Example 44, 7-(8-chloronaphthalen-1-yl)-4-(6-fluoro-3,8-diazabicyclo[3.2.1]octan-3-yl)-2-((2-fluorotetrahydro-1H-pyrrolizin-7a(5H)-yl)methoxy)-5,6,7,8-tetrahydropyrido[3,4-d]pyrimidine]: the IC50 worked out at 9.03 µM in test [1] and 0.0435 µM in test [3]. This compound displayed a Kd in test [2] of 0.0439 µM.

As for `Oc1cc(N2CCc3c(nc(OCC45CCCN4CCC5)nc3N3C[C@H]4CC[C@@H](C3)N4)C2)c2ccccc2c1` [Example 31, 4-(4-((1R,5S)-3,8-diazabicyclo[3.2.1]octan-3-yl)-2-((tetrahydro-1H-pyrrolizin-7a(5H)-yl)methoxy)-5,8-dihydropyrido[3,4-d]pyrimidin-7(6H)-yl)naphthalen-2-ol], the IC50 stood at 1.61 µM in test [1] and 0.0038 µM in test [3]. In test [2], this compound displayed a Kd of 0.0008 µM.

With `CN1CCC[C@H]1COc1nc2c(c(N3C[C@H]4CC[C@@H](C3)N4)n1)CCN(c1c(F)cccc1C(F)(F)F)C2` [Example 75, 4-((1R,5S)-3,8-diazabicyclo[3.2.1]octan-3-yl)-7-(2-fluoro-6-(trifluoromethyl)phenyl)-2-(((S)-1-methylpyrrolidin-2-yl)methoxy)-5,6,7,8-tetrahydropyrido[3,4-d]pyrimidine], the IC50 in test [1] was over 16.7 µM; in test [3] it was over 10 µM. Also, the Kd in test [2] turned out to be 170 µM.

As for `CN1CCC[C@H]1COc1nc2c(c(N3CC4CCC(C)(C3)N4)n1)CCN(c1cc(O)cc3ccccc13)C2` (stereo partly drawn) [Example 61, 4-(4-(1-methyl-3,8-diazabicyclo[3.2.1]octan-3-yl)-2-(((S)-1-methylpyrrolidin-2-yl)methoxy)-5,8-dihydropyrido[3,4-d]pyrimidin-7(6H)-yl)naphthalen-2-ol], the IC50 in test [1] was found to be 6.88 µM; in test [3], 0.184 µM. The compound also registered a Kd in test [2] of 0.176 µM.

In the case of `CN1CCC[C@H]1COc1nc2c(c(N3C[C@H]4CC(CCO)[C@@H](C3)N4)n1)CCN(c1cccc3cccc(Cl)c13)C2` (stereo partly drawn) [Example 91, 2-((1R,5S)-3-(7-(8-chloronaphthalen-1-yl)-2-(((S)-1-methylpyrrolidin-2-yl)methoxy)-5,6,7,8-tetrahydropyrido[3,4-d]pyrimidin-4-yl)-3,8-diazabicyclo[3.2.1]octan-6-yl)ethan-1-ol], the IC50 was over 16.7 µM in test [1] and 0.0784 µM in test [3]. For the same compound, in test [2], the Kd amounted to 0.176 µM.

Take `CN1CCC[C@H]1COc1nc2c(c(N3C[C@H]4CC[C@@H](C3)N4)n1)CCN(c1cc(O)cc3cccc(Cl)c13)C2` [Example 28, 4-(4-((1R,5S)-3,8-diazabicyclo[3.2.1]octan-3-yl)-2-(((S)-1-methylpyrrolidin-2-yl)methoxy)-5,8-dihydropyrido[3,4-d]pyrimidin-7(6H)-yl)-5-chloronaphthalen-2-ol]: the figures for the IC50 in test [1] and in test [3] were 0.361 µM and 0.0012 µM, respectively. Moreover, the Kd in test [2] was over 1000 µM.
